Assay results as given in US20140371210A1, “METHODS AND COMPOSITIONS FOR RAPID TRANSBUCCAL DELIVERY OF ACTIVE AGENTS” (Jaleva Pharmaceuticals, LLC, priority 2011, published 2014).
Like-named read-outs stand apart in the source and are kept apart here.

Experiments:
[1] = cited from earlier work

Structure (SMILES): Cc1nnc2n1-c1ccc(Cl)cc1C(c1ccccc1)=NC2 [alprazolam]
- cytoprotective effect of resin composition (human cells): cytoprotective effect has been shown

Structure (SMILES): O=C(O)Cc1ccccc1Nc1c(Cl)cccc1Cl [diclofenac]
- cytoprotective effect of resin composition (human cells): cytoprotective effect has been shown

Structure (SMILES): CC[C@H]1OC(=O)[C@H](C)[C@@H](O[C@H]2C[C@@](C)(OC)[C@@H](O)[C@H](C)O2)[C@H](C)[C@@H](O[C@@H]2O[C@H](C)C[C@H](N(C)C)[C@H]2O)[C@](C)(O)C[C@@H](C)C(=O)[C@H](C)[C@@H](O)[C@]1(C)O [erythromycin]
- cytoprotective effect of resin composition (human cells): cytoprotective effect has been shown

Structure (SMILES): CC(C)Cc1ccc(C(C)C(=O)O)cc1 (stereo not shown) [ibuprofen]
- cytoprotective effect of resin composition (human cells): cytoprotective effect has been shown

Structure (SMILES): CNS(=O)(=O)CCc1ccc2[nH]cc(C3CCN(C)CC3)c2c1 [naratriptan]
- logD ([1]; pH 7.4): −0.85

Structure (SMILES): CN1CCCC1c1cccnc1 (stereo not shown) [nicotine]
- cytoprotective effect of resin composition (human cells): cytoprotective effect has been shown
- logD ([1]; pH 7.4): −0.62

Structure (SMILES): Cc1nccn1CC1CCc2c(c3ccccc3n2C)C1=O (stereo not shown) [ondansetron]
- cytoprotective effect of resin composition (human cells): cytoprotective effect has been shown
- logD ([1]; pH 7.4): 1.2

Structure (SMILES): CCCc1nn(C)c2c(=O)[nH]c(-c3cc(S(=O)(=O)N4CCN(C)CC4)ccc3OCC)nc12 [sildenafil]
- logD ([1]; pH 5.5): 1.83
- logD ([1]; pH 7.4): 2.26

Structure (SMILES): CCCc1nc(C)c2c(=O)[nH]c(-c3cc(S(=O)(=O)N4CCN(CC)CC4)ccc3OCC)nn12 [vardenafil]
- logD ([1]; pH 5.5): 2.26
- logD ([1]; pH 7.4): 3.71
